Tests used:
[1] = test system: contracting skeletal muscle of anaesthetised dogs; assay: Muscle fatigue in contracting gracilis muscle of anaesthetised dogs; type: in vivo, Beagle dogs; conditions: following treatment with DCA (300 mg.kg−1 as sodium salt, infusion 45 min before contraction); 20 min stimulation at 3 Hz; fatigue=(peak tension—end tension)/peak tension
Protocol: The invention will now be further described by reference to the accompanying, non-limiting, experimental methods. In the following expermimental methods we have used the PDH kinase inhibitor dichloroacetate to determine if inhibitors of PDH kinase can reduce the rate of fatigue in contracting skeletal muscle of anaesthetised dogs which has blood flow limited to the same extent as patients with intermittent claudication. Suitable doses of DCA include these in the range 30 to 300 mg.kg^−1. In the experimental methods which follow DCA was administered (at a dose of 300 mg.kg^−1) as the sodium salt of dichloroacetic acid.
Female Alderley Park Beagle dogs (12-18 kg) were pre-medicated with morphine (10 mg, i.m.) 30 minutes prior to induction of anaesthesia with sodium pentobarbitone (45 mg kg-1 i.v., Sagatal.). […] Rectal temperature was constantly monitored and maintained (range 36.2° C.-38.6° C.) with a homeothermic heating blanket (Harvard Instruments, Edenbridge. Kent. UK).
The left external jugular vein was cannulated for continuous administration of anaesthetic (sodium pentobarbitone 12 mg/ml at a rate of5 -6 ml/hour) using an infusion pump (injectomat S. Fresenius. Villiers. France). […] All pressures were measured using strain gauge manometers (PDCR 75. Druck Ltd. Barendeecht. Netherlands) attached to d.c. bridle amplifiers (Lectromed. MT8P. St. Peter. Jersey). […]

angina patients = conditions: cited from earlier work
gracilis muscle = assay: Muscle metabolites in gracilis muscle biopsies of anaesthetised dogs; type: in vivo, Beagle dogs; set-up: Lactate / Ac.carn. (acetyl carnitine) / Free carnitine: unit not given here; conditions: for Ac.carn. (acetyl carnitine) / Free carnitine / Lactate / PCr (phosphocreatine): DCA treated
Protocol: Animals were divided into DCA treated and vehicle (isotonic saline) treated groups. DCA or vehicle was given after completion of the surgery by a constant infusion. 45 minutes later the contraction was started. Muscle fatigue was measured in both normal and flow limited muscles. Arterial blood samples were taken from the brachial artery and venous blood samples were taken from each gracilis muscle at rest, during contraction and following recovery. The contraction period was 20 minutes of stimulation of 3 Hz. Blood samples (0.4 ml) being taken for blood gas analysis and analysed immediately. Parameters recorded were pH, pCO2. pO2. oxygen saturation and total Haemoglobin. Further samples (1.0 ml) were taken for analysis of lactate, glucose and non esterified fatty acid (NEFA) concentration.
Following resting blood samples and after drug/vehicle infusion a resting muscle biopsy (6 mm diameter Bergstrom needle. Stille, Sweden and 6 mm diameter Allendale needle, Edinburgh, Scotland), was taken from each muscle. After 20 minutes of stimulation the muscle was then freeze clamped, while still being stimulated, and a thin portion of muscle was excised and frozen in liquid nitrogen (The whole process took less than 6 seconds with the top layer of muscle being frozen within 1 second). The muscle samples were then stored in liquid nitrogen before a portion was freeze dried and analysed.
The muscle sample was divided into two portions, one for analysis of ATP, phosphocreatine (PCr), creatine (Cr) and intramuscular lactate (Harris. R et al., Scand. Journal Clin Lab Invest.. 33,109-120, 1974). The other portion of muscle was stored wet in liquid nitrogen. Briefly, the first portion of muscle was freeze dried, dissected free of visible connective tissue and blood and then powdered and was extracted in ice cold perchloric acid (0.5M) and neutralised with potassium bicarbonate (2.2M). Glycogen content was assayed using the method described by Harris et al. 1974 (see above).
Acetylcarnitine, free carnitine were assessed, in the freeze dried extract, by the method described by Cederblad et al; Anal. Biochem., 185, (1990), 274-278. PDH activity (rest & exercise, active and total) from a sample of wet tissue using the method of Constantin-Teodosiu D et al.. “A sensitive radioisotopic assay of pyruvate dehydrogenase complex in human muscle tissue”. Anal. Biochem.. Volume 198, p347-351. 1991. This method is also described by Dumitru Constantin-Teodosiu. Doctoral Thesis “Regulation of pyruvate dehydrgenase complex activity and acetyl group formation in skeletal muscle during exercise”. Stockholm 1992. from the Department of Clinical Chemistry, Karolinska Institute. Huddinge University Hospital. S-141 86 Huddinge Sweden.

volunteers = conditions: cited from earlier work
normal mice = conditions: cited from earlier work
[2] = test system: patients with class III heart failure; conditions: human, in vivo; cited from earlier work
[3] = angina patients undergoing catheterisation
[4] = Normal flow muscle after 20 min stimulation
[5] = Resricted flow muscle after 20 min stimulation

Question: What does the source list for `O=C(O)C(Cl)Cl` [DCA, dichloroacetic acid]?
Answer: muscle fatigue [1]: 25.0%; changes in heart rate or left ventricular inotropic state (LV dp/dtmax.) (angina patients; [3]): absence of changes; increase in stroke volume (angina patients; [3]): 13%; Myocardial efficiency (angina patients; angina patients, increased from 24%): 32%; Changes in Pcr (gracilis muscle; DCA treated versus control): reduced; Changes in lactate (gracilis muscle; DCA treated versus control): reduced; Ac.carn. (acetyl carnitine) (gracilis muscle; [4]): 9.6 ± 3.2; Free carnitine (gracilis muscle; [4]): 15.5 ± 2.5; Lactate (gracilis muscle; [4]): 5.4 ± 1.6; PCr (phosphocreatine) (gracilis muscle; [4]): 44.7 ± 3.2; Ac.carn. (acetyl carnitine) (gracilis muscle; [5]): 16.9 ± 2.6; Free carnitine (gracilis muscle; [5]): 9.6 ± 2.2; Lactate (gracilis muscle; [5]): 18.1 ± 4.0; PCr (phosphocreatine) (gracilis muscle; [5]): 38.9 ± 3.0; Ac.carn. (acetyl carnitine) (gracilis muscle; Resting muscle): 19.6 ± 1.0; Free carnitine (gracilis muscle; Resting muscle): 5.4 ± 1.6; Lactate (gracilis muscle; Resting muscle): 5.7 ± 1.4; PCr (phosphocreatine) (gracilis muscle; Resting muscle): 55.1 ± 2.5; Acetyl group availability (gracilis muscle; at rest and during contraction (RF muscle), DCA treated group versus control): higher; reduction of lactate production (volunteers; volunteers during maximal and 50% maximal workload): up to 30%; increase in maximal work capacity (volunteers; volunteers): 10%; increase in treadmill exercise duration (normal mice): 20%; oxidation of lactate (normal mice): increased; effects in patients with class III heart failure [2]: Beneficial effects

Source: patent publication US20030013764A1, “Use for a pyruvate dehydrogenase activator for the treatment of ischaemia in limbs” (priority 1995, published 2003)
